Experiments:
[1] = Parallel artificial membrane permeability assay (PAMPA); type: in vitro ADME
Protocol: Compound Papp values were determined by normalizing the experimental compound absorbance to the compounds’ absorbances at equilibrium, membrane porosity, buffer volume, and time (s). Two or more replicate assays were obtained on separate days for each pH.

[2] = system: HBV replication (HBV plus-polarity DNA strand); experiment: HBV replication inhibition, strand preferential qPCR in hepDES19 cells; type: cell-based, hepatitis B virus; conditions: for EC50: 72 h exposure, HBV plus-polarity strand suppression, highest concentration tested 100 µM, mean ± SD, read-out: HepDES19 EC50
Protocol: HBV replication inhibition was measured in hepDES19 cells following 72 h compound exposure without compound replenishment. EC50 values were determined by HBV plus-polarity strand suppression using a strand preferential qPCR assay, as described previously ([28]). Three or more replicate values were obtained on different days.

[3] = Solubility limit, turbidimetric assay; type: physicochemical; conditions: for Average Sol (solubility limit) / Sol 1 (solubility limit) / Sol 2 (solubility limit) / Sol 3 (solubility limit) / Sol 4 (solubility limit): upper limit 200 µM
Protocol: Solubility limits were determined by a turbidimetric assay, as described ([27]), with the solubility limit being defined as the compound concentration where light scattering began to rise. Two or more replicate assays were performed for each compound at each pH on different days.

HepDES19 cells = conditions: read-out: HepDES19 CC50; 72 h, MTS; highest concentration tested 100 µM; mean ± SD
Protocol: HepDES19 cells were plated on 96-well tissue culture-treated plates (Greiner) at 1.0 × 10^4 cells per well and incubated for 48 h. Cells were treated with titrated concentrations of compound or 1% DMSO vehicle for 72 h, and cellular viability was measured by 3-(4,5-dimethylthiazol-2-yl)−5-(3-carboxymethoxyphenyl)−2-(4-sulfophenyl)−2H-tetrazolium (MTS) assays, as described previously ([20]). […] Three or more replicate assays were done on different days.

Microsome stability = type: in vitro ADME, human
Protocol: Human liver microsomes (gender pooled, 50 individuals) were purchased from BioIVT and stored at −80°C until use. […] Reactions were initiated by addition of 1.2 mM NADPH. […] Microsomal proteins were pelleted at 4,000 × g and the supernatant was analyzed via LCMS/MS. […] The ln percent remaining values were plotted against time, the negative slope was taken (k), and compound half-life (t1/2) was determined using ln2/k. Intrinsic clearance (Clint [µL/min/mg]) was calculated by (V × ln2)/t1/2, where V is the incubation volume (µL) divided by the protein concentration in the reaction (mg) ([31]).

[4] = target: T1, human ribonuclease H1 (huRNase H1) (Homo sapiens, UniProt O60930); experiment: Human RNase H1 inhibition, fluorescent biochemical assay; conditions: recombinant huRNase H1, RNA:DNA heteroduplex substrate
T1 construct: made in house; host or cells: Escherichia coli
T1 sequence (O60930 1-286): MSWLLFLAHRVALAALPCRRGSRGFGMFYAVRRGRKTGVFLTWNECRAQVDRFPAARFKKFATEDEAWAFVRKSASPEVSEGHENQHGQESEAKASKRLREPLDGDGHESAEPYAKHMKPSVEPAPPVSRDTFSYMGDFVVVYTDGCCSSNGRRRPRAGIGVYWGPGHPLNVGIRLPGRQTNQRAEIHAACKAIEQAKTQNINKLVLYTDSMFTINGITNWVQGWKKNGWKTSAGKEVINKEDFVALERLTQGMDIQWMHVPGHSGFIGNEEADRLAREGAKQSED
Protocol: Recombinant human ribonuclease H1 (huRNase H1) was expressed in Escherichia coli and purified by nickel affinity chromatography, as described previously ([30]). […] The heteroduplex substrate was prepared, as described by Ponzar et al. ([30]). Reactions were initiated by the addition of MgCl2 (5 mM final) and were performed on a Biotek Synergy HTX multi-mode plate reader at 28°C.
Maximum rates of fluorescence increase were calculated using the Biotek Gen5 v3.15 software and percentage activity was determined for each compound concentration by subtracting rates from no enzyme reactions and normalizing to DMSO reactions. […] Reactions were performed at least three times on separate days.

[5] = pH 5 (fed simulated intestinal fluid)
[6] = pH 6.5 (fasted simulated intestinal fluid)

| Structure (SMILES) | Avg Papp (PAMPA) ([1]; FeSSIF pH 5) [×10⁻⁶ cm/s] | Interpretation (PAMPA Papp) ([1]; FeSSIF pH 5) | Papp 1 (PAMPA) ([1]; FeSSIF pH 5, replicate 1) [×10⁻⁶ cm/s] | Papp 2 (PAMPA) ([1]; FeSSIF pH 5, replicate 2) [×10⁻⁶ cm/s] | Avg Papp (PAMPA) ([1]; pH 7.4) [×10⁻⁶ cm/s] | Interpretation (PAMPA Papp) ([1]; pH 7.4) | Papp 1 (PAMPA) ([1]; pH 7.4, replicate 1) [×10⁻⁶ cm/s] | Papp 2 (PAMPA) ([1]; pH 7.4, replicate 2) [×10⁻⁶ cm/s] | HepDES19 SI (CC50/EC50) [2] | EC50 [2] [µM] | Average Sol (solubility limit) [3, 5] [µM] | Sol 1 (solubility limit) ([3]; pH 5, replicate 1) [µM] | Sol 2 (solubility limit) ([3]; pH 5, replicate 2) [µM] | Average Sol (solubility limit) [3, 6] [µM] | Sol 1 (solubility limit) ([3]; pH 6.5, replicate 1) [µM] | Sol 2 (solubility limit) ([3]; pH 6.5, replicate 2) [µM] | Average Sol (solubility limit) ([3]; pH 7.4 (DMEM-F12 with 10% FBS)) [µM] | Sol 1 (solubility limit) ([3]; pH 7.4, replicate 1) [µM] | Sol 2 (solubility limit) ([3]; pH 7.4, replicate 2) [µM] | CC50 (HepDES19 cells) [µM] | also measured |
| --- | --- | --- | --- | --- | --- | --- | --- | --- | --- | --- | --- | --- | --- | --- | --- | --- | --- | --- | --- | --- | --- |
| CC(=NOCc1ccccc1C)c1c(C)cc(=O)n(O)c1O [Compound 1681] | 30 | H (H: Papp > 1*10-6) | 28.5 | 31.5 | 4.73 | H (H: Papp > 1*10-6) | 3.11 | 9.39 | 25.2 | 3.97 ± 1.19 | > 200 | > 200 | > 200 | > 200 | > 200 | > 200 | 106 | 25 | 100 | > 100 | Papp 3 (PAMPA) ([1]; pH 7.4, replicate 3): 4.69 ×10⁻⁶ cm/s; Papp 4 (PAMPA) ([1]; pH 7.4, replicate 4): 1.74 ×10⁻⁶ cm/s; Sol 3 (solubility limit) ([3]; pH 7.4, replicate 3): > 200 µM; Sol 4 (solubility limit) ([3]; pH 7.4, replicate 4): 100 µM |
| CC(=NOCc1ccc(C(F)(F)F)cc1)c1c(C)cc(=O)n(O)c1O [Compound 1235] | 18 | H (H: Papp > 1*10-6) | 22.7 | 13.2 | 3.34 | H (H: Papp > 1*10-6) | 2.29 | 4.4 | 26.3 | 1.87 ± 0.351 | > 200 | > 200 | > 200 | 167 | 100 | > 200 | > 200 | > 200 | > 200 | 49.2 ± 19.2 | Sol 3 (solubility limit) ([3]; pH 6.5, replicate 3): > 200 µM; Clearance (intrinsic clearance, Clint) (Microsome stability; human, microsomes): 5.48 µL/min/mg; Half-life (Microsome stability; human, microsomes): >30 min |
| CC(=NOCc1ccc(Br)cc1)c1c(C)cc(=O)n(O)c1O [Compound 1717] | – | – | – | – | 1.61 | H (H: Papp > 1*10-6) | 1.61 | 1.61 | 52.7 | 1.13 ± 0.186 | 100 | 100 | 100 | 50 | 50 | 50 | 138 | 50 | > 200 | 76.7 ± 30.3 | Solubility limit category [3, 6]: partially soluble (partially soluble (100–1 µM)); Sol 3 (solubility limit) ([3]; pH 6.5, replicate 3): 50 µM; Sol 3 (solubility limit) ([3]; pH 7.4, replicate 3): > 200 µM; Sol 4 (solubility limit) ([3]; pH 7.4, replicate 4): 100 µM |
| CC(=NOCc1ccc(OCc2ccccc2)cc1)c1c(C)cc(=O)n(O)c1O [Compound 1738] | 25.9 | H (H: Papp > 1*10-6) | 19.9 | 42.6 | 5.42 | H (H: Papp > 1*10-6) | 1.34 | 9.64 | 6.53 | 7.49 ± 1.73 | > 200 | > 200 | > 200 | > 200 | > 200 | > 200 | 167 | > 200 | 100 | 51.4 ± 19.2 | Papp 3 (PAMPA) ([1]; FeSSIF pH 5, replicate 3): 3.74 ×10⁻⁶ cm/s; Papp 4 (PAMPA) ([1]; FeSSIF pH 5, replicate 4): 37.3 ×10⁻⁶ cm/s; Papp 3 (PAMPA) ([1]; pH 7.4, replicate 3): 9.47 ×10⁻⁶ cm/s; Papp 4 (PAMPA) ([1]; pH 7.4, replicate 4): 1.23 ×10⁻⁶ cm/s; IC50 [4]: 0.56 µM; Sol 3 (solubility limit) ([3]; pH 7.4, replicate 3): > 200 µM |
| CC(=NOCc1ccc2ccccc2c1)c1c(C)cc(=O)n(O)c1O [Compound 1811] | – | – | – | – | 3.57 | H (H: Papp > 1*10-6) | 1.71 | 3.97 | 71.3 | 1.4 ± 1.19 | 50 | 50 | 50 | > 200 | > 200 | > 200 | 167 | 100 | > 200 | 64.3 ± 25.2 | Papp 3 (PAMPA) ([1]; pH 7.4, replicate 3): 4.02 ×10⁻⁶ cm/s; Papp 4 (PAMPA) ([1]; pH 7.4, replicate 4): 4.6 ×10⁻⁶ cm/s; Solubility limit category ([3]; pH 5.0 (fed simulated intestinal fluid)): partially soluble (partially soluble (100–1 µM)); Sol 3 (solubility limit) ([3]; pH 7.4, replicate 3): > 200 µM |
| COc1ccc(CON=C(C)c2c(C)cc(=O)n(O)c2O)cc1OC [Compound 1669] | 56.7 | H (H: Papp > 1*10-6) | 57.9 | 55.5 | 2.12 | H (H: Papp > 1*10-6) | 2.03 | 2.2 | 80.6 | 1.13 ± 0.955 | > 200 | > 200 | > 200 | > 200 | > 200 | > 200 | > 200 | > 200 | > 200 | 91 ± 15.6 | – |
| CC(C)c1nc(CN(C)C(=O)N[C@H](C(=O)N[C@@H](Cc2ccccc2)C[C@H](O)[C@H](Cc2ccccc2)NC(=O)OCc2cncs2)C(C)C)cs1 [Ritonavir, ritonavir, reference compound] | – | – | – | – | – | – | – | – | – | – | – | – | – | – | – | – | – | – | – | – | half-life at 1 µM (Microsome stability; both sexes, human liver microsomes, 1 µM compound, 30 min, NADPH): 23.3 min; microsomal CLint at 1 µM (Microsome stability; both sexes, human liver microsomes, 1 µM compound, 30 min, NADPH, read-out: Clearance (intrinsic clearance, Clint)): 45.2 µL/min/mg |
| CC(=NOCc1ccccc1Br)c1c(C)cc(=O)n(O)c1O [Compound 1718] | 43.6 | H (H: Papp > 1*10-6) | 37.3 | 50 | 3.22 | H (H: Papp > 1*10-6) | 3.31 | 3.07 | 34.1 | 2 ± 1.63 | > 200 | > 200 | > 200 | 138 | 50 | 100 | 150 | 50 | > 200 | 80.8 ± 27.5 | Papp 3 (PAMPA) ([1]; pH 7.4, replicate 3): 3.29 ×10⁻⁶ cm/s; Sol 3 (solubility limit) ([3]; pH 6.5, replicate 3): > 200 µM; Sol 4 (solubility limit) ([3]; pH 6.5, replicate 4): > 200 µM; Sol 3 (solubility limit) ([3]; pH 7.4, replicate 3): > 200 µM |
